Experimental data taken from patent US10106534B2 (CELGENE QUANTICEL RESEARCH, INC., priority 2014, dated 2018).

Legend:
[1] = molecular target: JMJD2C (Homo sapiens (Human), UniProt Q9H3R0); assay: In vitro enzyme inhibition assay for JMJD2C activity (TR-FRET); assay type: biochemical
Description: This assay determines the ability of a test compound to inhibit JMJD2C demethylase activity. Baculovirus expressed JMJD2C (GenBank Accession #BC143571, AA 2-372) was purchased from BPS Bioscience (Cat#50105).
The ability of test compounds to inhibit the activity of JMJD2C was determined in 384-well plate format under the following reaction conditions: 0.3 nM JMJD2C, 300 nM H3K9me3-biotin labeled peptide (Anaspec cat #64360), 2 μM alpha-ketoglutaric acid in assay buffer of 50 mM HEPES, pH7.3, 0.005% Brij35, 0.5 mM TCEP, 0.2 mg/ml BSA, 50 μM sodium L-ascorbate, and 2 μM ammonium iron(II) sulfate. Reaction product was determined quantitatively by TR-FRET after the addition of detection reagent Phycolink Streptavidin-allophycocyanin (Prozyme) and Europium-anti-di-methylated histone H3 lysine 9 (H3K9me2) antibody (PerkinElmer) in the presence of 5 mM EDTA in LANCE detection buffer (PerkinElmer) at a final concentration of 50 nM and 1 nM, respectively.
The assay reaction was initiated by the following: 2 μl of the mixture of 900 nM H3K9me3-biotin labeled peptide and 6 μM alpha-ketoglutaric acid with 2 μl of 11-point serial diluted inhibitor in 3% DMSO were added to each well of the plate, followed by the addition of 2 μl of 0.9 nM JMJD2C to initiate the reaction. The reaction mixture was incubated at room temperature for 30 minutes, and terminated by the addition of 6 μl of 5 mM EDTA in LANCE detection buffer containing 100 nM Phycolink Streptavidin-allophycocyanin and 2 nM Europium-anti-H3K9me2 antibody. Plates were read by EnVisionMultilabel Reader in TR-FRET mode (excitation at 320 nm, emission at 615 nm and 665 nm) after 1 hour incubation at room temperature. A ratio was calculated (665/615) for each well and fitted to determine inhibition constant (IC50).

[2] = system: KYSE-150 esophageal carcinoma cell line; assay: In vitro cell-based assay: cellular proliferation via BrdU incorporation (ELISA); set-up: species or system human; details: Homo sapiens, KYSE-150, 168 hours compound incubation
Description: The primary cellular assay for JMJD2C inhibition is an assay which measures cellular proliferation via Bromodeoxyuridine (BrdU) incorporation after 168 hours of compound incubation. Cell lines tested include the JMJD2C gene amplified cell line KYSE-150. This is a quantitative ELISA assay measuring DNA incorporation of BrdU during S-phase as a direct readout of cellular proliferation.
Assay Principle: This is a colorimetric immunoassay for the quantification of cell proliferation. Cells treated for 168 hours with test compounds are assayed for their ability to go through S-phase as a measure of their proliferative potential.
Assay Method: The human KYSE-150 (SMAD4 mut, TP53 mut) esophageal carcinoma cell line was seeded at 2,000 cells/well on a 96-well tissue culture treated plate. After an overnight incubation, cells were treated with compound in an 11-point dilution series with final concentrations ranging from 100 μM to 2 nM. Cells were then incubated in the presence of compound for 168 hours. After compound incubation the cells were assayed using a BrdU Cell Proliferation ELISA (Roche). The cells were first incubated with BrdU labeling reagent for 2 hours. After 2 hours, the BrdU incorporated cells were fixed and denatured, probed with an anti-BrdU-Peroxidase antibody for 1.5 hours and washed. Finally, a tetramethylbenzidine peroxidase substrate was added to each well for 15 minutes followed by a H2SO4 stop solution. The plate was read at 450 nm, and the raw optical density data was transferred into XLFit (IDBS) for IC50 calculation using the formula: fit=(D+((Vmax*(x^n))/((x^n)+(Km^n))))

Chain of JMJD2C (Q9H3R0 2-372): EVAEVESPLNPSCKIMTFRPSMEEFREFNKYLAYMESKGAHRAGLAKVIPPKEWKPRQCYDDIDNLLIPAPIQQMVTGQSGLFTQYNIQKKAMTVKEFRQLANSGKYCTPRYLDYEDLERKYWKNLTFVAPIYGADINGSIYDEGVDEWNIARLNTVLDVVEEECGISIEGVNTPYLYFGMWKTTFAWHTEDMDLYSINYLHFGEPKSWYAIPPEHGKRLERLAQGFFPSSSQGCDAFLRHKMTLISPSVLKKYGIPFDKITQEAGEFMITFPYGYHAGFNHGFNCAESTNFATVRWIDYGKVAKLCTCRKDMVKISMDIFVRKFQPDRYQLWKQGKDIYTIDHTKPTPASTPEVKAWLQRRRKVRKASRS

Row | Compound | IC50 [1] | IC50 [2]
1 | O=C(O)c1ccncc1NCC1CCCc2cc(N3CCCc4ccccc43)ccc21 (centres unmarked) [Example 4, 3-({[6-(1,2,3,4-tetrahydroquinolin-1-yl)-1,2,3,4-tetrahydronaphthalen-1-yl]methyl}amino)pyridine-4-carboxylic acid] | 1000 to 10000 nM | 100 to 1000 nM
2 | O=C(O)c1ccncc1NCC1CCCc2cc(N3CCc4ccccc43)ccc21 (centres unmarked) [Example 5, 3-({[6-(2,3-dihydro-1H-indol-1-yl)-1,2,3,4-tetrahydronaphthalen-1-yl]methyl}amino)pyridine-4-carboxylic acid] | 1000 to 10000 nM | 100 to 1000 nM
3 | CN(c1ccc(Cl)cc1)c1ccc2c(c1)CCC[C@H]2CNc1cnccc1C(=O)O [Example 9, 3-({[(1R)-6-[(4-chlorophenyl)(methyl)amino]-1,2,3,4-tetrahydronaphthalen-1-yl]methyl}amino)pyridine-4-carboxylic acid] | 1000 to 10000 nM | ≤ 100 nM
4 | O=C(O)c1ccncc1NCC1CCOc2cc(-c3ccc(C(F)(F)F)cc3)ccc21 (centres unmarked) [Example 27, 3-[({7-[4-(trifluoromethyl)phenyl]-3,4-dihydro-2H-1-benzopyran-4-yl}methyl)amino]pyridine-4-carboxylic acid] | 1000 to 10000 nM | 1000 to 10000 nM
5 | Cc1cccc(-c2ccc3c(c2)OCC[C@H]3CNc2cnccc2C(=O)O)c1 [Example 30, 3-({[(4R)-7-(3-methylphenyl)-3,4-dihydro-2H-1-benzopyran-4-yl]methyl}amino)pyridine-4-carboxylic acid] | 100 to 1000 nM | 100 to 1000 nM
6 | Cc1ccc(-c2ccc3c(c2)OCC[C@H]3CNc2cnccc2C(=O)O)cc1 [Example 32, 3-({[(4R)-7-(4-methylphenyl)-3,4-dihydro-2H-1-benzopyran-4-yl]methyl}amino)pyridine-4-carboxylic acid] | 100 to 1000 nM | 1000 to 10000 nM
7 | CC(C)C#Cc1ccc2c(c1)OCCC2CNc1cnccc1C(=O)O (centres unmarked) [Example 38, 3-({[7-(3-methylbut-1-yn-1-yl)-3,4-dihydro-2H-1-benzopyran-4-yl]methyl}amino)pyridine-4-carboxylic acid] | 100 to 1000 nM | > 10000 nM
8 | Cc1c(F)cccc1-c1ccc2c(c1)OCC[C@H]2CNc1cnccc1C(=O)O [Example 42, 3-({[(4R)-7-(3-fluoro-2-methylphenyl)-3,4-dihydro-2H-1-benzopyran-4-yl]methyl}amino)pyridine-4-carboxylic acid] | 100 to 1000 nM | 100 to 1000 nM
9 | Cc1ccc(F)cc1-c1ccc2c(c1)OCC[C@H]2CNc1cnccc1C(=O)O [Example 43, 3-({[(4R)-7-(5-fluoro-2-methylphenyl)-3,4-dihydro-2H-1-benzopyran-4-yl]methyl}amino)pyridine-4-carboxylic acid] | 100 to 1000 nM | ≤ 100 nM
10 | O=C(O)c1ccncc1NC[C@@H]1CCOc2cc(-c3cccc(F)c3Cl)ccc21 [Example 44, 3-({[(4R)-7-(2-chloro-3-fluorophenyl)-3,4-dihydro-2H-1-benzopyran-4-yl]methyl}amino)pyridine-4-carboxylic acid] | 100 to 1000 nM | 100 to 1000 nM
11 | O=C(O)c1ccncc1NC[C@@H]1CCOc2cc(-c3cc(F)ccc3Cl)ccc21 [Example 45, 3-({[(4R)-7-(2-chloro-5-fluorophenyl)-3,4-dihydro-2H-1-benzopyran-4-yl]methyl}amino)pyridine-4-carboxylic acid] | 100 to 1000 nM | 100 to 1000 nM
12 | O=C(O)c1ccncc1NC[C@@H]1CCOc2cc(-c3ccccc3C(F)(F)F)ccc21 [Example 46, 3-({[(4R)-7-[2-(trifluoromethyl)phenyl]-3,4-dihydro-2H-1-benzopyran-4-yl]methyl}amino)pyridine-4-carboxylic acid] | 100 to 1000 nM | ≤ 100 nM
13 | O=C(O)c1ccncc1NC[C@@H]1CCOc2cc(Oc3ccccc3)ccc21 [Example 48, 3-({[(4R)-7-phenoxy-3,4-dihydro-2H-1-benzopyran-4-yl]methyl}amino)pyridine-4-carboxylic acid] | 100 to 1000 nM | 1000 to 10000 nM
14 | O=C(O)c1ccncc1NCC1CCOc2cc(Sc3cccs3)ccc21 (centres unmarked) [Example 49, 3-({[7-(thiophen-2-ylsulfanyl)-3,4-dihydro-2H-1-benzopyran-4-yl]methyl}amino)pyridine-4-carboxylic acid] | 100 to 1000 nM | 1000 to 10000 nM
15 | Cc1ccccc1Sc1ccc2c(c1)OCC[C@H]2CNc1cnccc1C(=O)O [Example 51, 3-({[(4R)-7-[(2-methylphenyl)sulfanyl]-3,4-dihydro-2H-1-benzopyran-4-yl]methyl}amino)pyridine-4-carboxylic acid] | 100 to 1000 nM | 1000 to 10000 nM

Further lines, results first:

Row | IC50 [1] | IC50 [2] | Compound
16 | 100 to 1000 nM | > 10000 nM | O=C(O)c1ccncc1NCC1CCCc2cc(N3CCCC3=O)ccc21 (centres unmarked) [Example 3, 3-({[6-(2-oxopyrrolidin-1-yl)-1,2,3,4-tetrahydronaphthalen-1-yl]methyl}amino)pyridine-4-carboxylic acid]
17 | 100 to 1000 nM | ≤ 100 nM | CN(c1ccc2c(c1)CCC[C@H]2CNc1cnccc1C(=O)O)c1ccccc1F [Example 6, 3-({[(1R)-6-[(2-fluorophenyl)(methyl)amino]-1,2,3,4-tetrahydronaphthalen-1-yl]methyl}amino)pyridine-4-carboxylic acid]
18 | 100 to 1000 nM | ≤ 100 nM | CN(c1cccc(F)c1)c1ccc2c(c1)CCC[C@H]2CNc1cnccc1C(=O)O [Example 7, 3-({[(1R)-6-[(3-fluorophenyl)(methyl)amino]-1,2,3,4-tetrahydronaphthalen-1-yl]methyl}amino)pyridine-4-carboxylic acid]
19 | 100 to 1000 nM | ≤ 100 nM | CN(c1ccc(F)cc1)c1ccc2c(c1)CCC[C@H]2CNc1cnccc1C(=O)O [Example 8, 3-({[(1R)-6-[(4-fluorophenyl)(methyl)amino]-1,2,3,4-tetrahydronaphthalen-1-yl]methyl}amino)pyridine-4-carboxylic acid]
20 | 100 to 1000 nM | ≤ 100 nM | CCN(c1ccccc1)c1ccc2c(c1)CCC[C@H]2CNc1cnccc1C(=O)O [Example 10, 3-({[(1R)-6-[ethyl(phenyl)amino]-1,2,3,4-tetrahydronaphthalen-1-yl]methyl}amino)pyridine-4-carboxylic acid]
21 | ≤ 100 nM | 100 to 1000 nM | CN(c1cccnc1)c1ccc2c(c1)CCC[C@H]2CNc1cnccc1C(=O)O [Example 12, 3-({[(1R)-6-[methyl(pyridin-3-yl)amino]-1,2,3,4-tetrahydronaphthalen-1-yl]methyl}amino)pyridine-4-carboxylic acid]
22 | 100 to 1000 nM | 100 to 1000 nM | COc1ccc(N(C)c2ccc3c(c2)CCC[C@H]3CNc2cnccc2C(=O)O)cn1 [Example 13, 3-({[(1R)-6-[(6-methoxypyridin-3-yl)(methyl)amino]-1,2,3,4-tetrahydronaphthalen-1-yl]methyl}amino)pyridine-4-carboxylic acid]
23 | 100 to 1000 nM | > 10000 nM | O=C(O)c1ccncc1NCC1CCOc2cc(Br)ccc21 (centres unmarked) [Example 14, 3-{[(7-bromo-3,4-dihydro-2H-1-benzopyran-4-yl)methyl]amino}pyridine-4-carboxylic acid]
24 | 100 to 1000 nM | 1000 to 10000 nM | O=C(O)c1ccncc1NCC1CCOc2cc(Nc3ccccc3)ccc21 (centres unmarked) [Example 15, 3-({[7-(phenylamino)-3,4-dihydro-2H-1-benzopyran-4-yl]methyl}amino)pyridine-4-carboxylic acid]
25 | 100 to 1000 nM | ≤ 100 nM | CN(c1ccc2c(c1)OCC[C@H]2CNc1cnccc1C(=O)O)c1ccccc1F [Example 19, 3-({[(4R)-7-[(2-fluorophenyl)(methyl)amino]-3,4-dihydro-2H-1-benzopyran-4-yl]methyl}amino)pyridine-4-carboxylic acid]
